We go through one compound from patent US11331328B2, “Compositions and methods for inhibiting antiapoptotic Bcl-2 proteins as anti-aging agents” (priority 2014, dated 2022).

For experiment [1], the system named is senescent WI38 cells induced by replicative exhaustion (Rep-SC). The experiment in a line: Cell viability, LD50 in replicative senescent WI-38 cells. In kind it is cell-based, human. As to conditions: Table 2. The procedure: (§1) Human WI-38 fibroblasts (WI38 cells, #CCL-75™), human IMR-90 fibroblasts (IMR90 cells, #CCL-186™), human renal epithelial cells (REC cells, #PCS-400-012™) were obtained from ACTT (Manassas, Va., USA). Mouse embryonic fibroblasts (MEF) were isolated from mouse embryos as described^1. All cells were cultured in a complete medium (CM) (Dulbecco's Modified Eagle Medium supplemented with 10% fetal bovine serum [FBS], 100 U/ml penicillin, and 100 μg/ml streptomycin [all from Atlanta Biologicals, Norcross, Ga., and USA]) in a humidified incubator at 37° C. and 5% CO2. Low passages of WI-38 cells (<25), IMR-90 (<25), REC cells (<25) and MEF (<3) were used as non-senescent controls or for induction of senescence to avoid replicative senescence. To induce replicative senescence, WI-38 cells were subcultivated until cell division ceased after about 38 passages or 60 population doublings (FIG. 5)^2. […]
Flow cytometry: Non-senescent and senescent cells were seeded into wells of 24- or 48-well at about 70% of confluence. […] Viable cells (PI^− cells) were numerated by flow cytometry at a constant flow rate and calculated as a percentage of control cells treated with vehicle using the formula: percentage of control=(Ndrug/NC)×100, where Ndrug and NC represent the absolute number of PI^− viable cells of drug-treated and vehicle-treated cells, respectively. […]

Another experiment has as its system human IMR-90 fibroblasts. The experiment in a line: Cell viability, IR-SC vs NC, IMR-90 fibroblasts. In kind it is cell-based. As to conditions: increasing concentrations, 72 h. The procedure:
as §1
(§2) Flow cytometry: Non-senescent and senescent cells were seeded into wells of 24- or 48-well at about 70% of confluence. […] Viable cells (PI^− cells) were numerated by flow cytometry at a constant flow rate and calculated as a percentage of control cells treated with vehicle using the formula: percentage of control=(Ndrug/NC)×100, where Ndrug and NC represent the absolute number of PI^− viable cells of drug-treated and vehicle-treated cells, respectively.

Experiment [2] relates to human renal epithelial cells (REC). The experiment in a line: Cell viability, IR-SC vs NC, renal epithelial cells. It counts as cell-based. As to conditions: increasing concentrations, 72 h. The procedure:
as §1, §2

In experiment [3] the test system is non-senescent WI-38 cells (NC). The experiment in a line: Cell viability (PI flow cytometry), LD50 in non-senescent WI-38 cells. It counts as cell-based, human. The conditions noted are these: for CC50: WI-38 fibroblasts, non-senescent, LD50 by Probit Analysis, read-out: LD50 (μM) for non-senescent cells (NC). On the procedure: Mouse embryonic fibroblasts (MEF) were isolated from mouse embryos as described^1. All cells were cultured in a complete medium (CM) (Dulbecco's Modified Eagle Medium supplemented with 10% fetal bovine serum [FBS], 100 U/ml penicillin, and 100 μg/ml streptomycin [all from Atlanta Biologicals, Norcross, Ga., and USA]) in a humidified incubator at 37° C. and 5% CO2. Low passages of WI-38 cells (<25), IMR-90 (<25), REC cells (<25) and MEF (<3) were used as non-senescent controls or for induction of senescence to avoid replicative senescence. […] To induce senescence by expression of oncogenic Ras (Ras^V12), WI-38 cells were infected with the retroviruses pBabe-H-Ras or pBabe-puro (control) (Addgene, Cambridge, Mass., UAS)^2, 3. […] Senescent cells were maintained in culture for a few days, changing the culture medium every 3 days until use. For in vitro cell culture experiments, we usually repeated the experiments for at least three times to ensure the reproducibility of the data. In addition, the repeats of the experiments for three times will allow us to obtain 3 independent observations for statistical analysis.
Flow cytometry: Non-senescent and senescent cells were seeded into wells of 24- or 48-well at about 70% of confluence. […] Both quiescent non-senescent cells and permanently growth arrested senescent cells were treated with vehicle (0.1% DMSO or PBS) or increasing concentrations of the compounds listed in Table 1 for various durations. […] After incubated with propidium iodide (PI 100 ng/ml) in PBS at room temperature for 1 min, cells were centrifuged at 1200 rpm for 6 min and then resuspended in PBS with 2% of FBS for analysis by a BD LSR II flow cytometer (BD Biosciences, San Jose, Calif., USA). Viable cells (PI^− cells) were numerated by flow cytometry at a constant flow rate and calculated as a percentage of control cells treated with vehicle using the formula: percentage of control=(Ndrug/NC)×100, where Ndrug and NC represent the absolute number of PI^− viable cells of drug-treated and vehicle-treated cells, respectively.
MTT (3-[4,5-dimethylthiazol-2-yl]-2,5 diphenyl tetrazolium bromide) assay: Cells were harvested, washed and resuspended in CM and added to wells of 24- or 48-well plates as described above. […] After 4 h at 37° C., the formazan was solubilized by lysing the cells with 300 μl of DMSO. Absorbance of formazan was measured at 595 nm using a Microplate Reader (BioTek, Winooski, Vt., USA). Cell viability was calculated in the method as previously described^4.
Trypan blue exclusion assay: Cells were harvested, washed and resuspended in CM and added to wells of a 6-well plate as described above. […] Living cells stained negative for trypan blue and were counted under light microscopy.
Briefly, Probit (set as y) was determined by looking up their correspondence to the % responded in Finney's table. The log of the compound concentrations was used as x. By fitting a line of regression, we produce the formula y=ax+b.

Structures are written as SMILES. Where two headings read alike, the source gives them in different places.

Consider `CC1(C)CCC(c2ccc(Cl)cc2)=C(CN2CCN(c3ccc(C(=O)NS(=O)(=O)c4ccc(N[C@H](CCN5CCOCC5)CSc5ccccc5)c(S(=O)(=O)C(F)(F)F)c4)cc3)CC2)C1` [ABT263, navitoclax], for which the “LD50” value in experiment [1] was 1.45 µM; in experiment [3] (Table 2, NC WI38 cells) it was 12.60 µM. The “viable cells, IR-SC vs NC” value (with human IMR-90 fibroblasts; in experiment [2]) was “kills IR-induced senescent cells (IR-SC) but not non-senescent cells (NC)” in each case. Further, the figures for the CC50 in experiment [3] (Homo sapiens) and in experiment [3] were 12.6 µM and 12.60 µM, respectively. For the same compound, in experiment [3] (non-senescent WI-38, increasing concentrations, 72 h), the “viable cells by MTT assay and trypan blue exclusion test” value was “is not cytotoxic to non-senescent WI-38 cells”.
